MIC data for one compound are collected here from ChEMBL document CHEMBL1275548, “Interspecies recombination occurs frequently in quinolone resistance-determining regions of clinical isolates of Streptococcus pyogenes” (2008).

Structures are written as SMILES. Some results are limits rather than exact numbers.

The assay has as its system Streptococcus pyogenes. The experiment in a line: Antibacterial activity against Streptococcus pyogenes clinical isolate by agar dilution method. Background: Agar dilution tests growth on a series of plates holding different concentrations.

A word on the MIC: it is the smallest concentration in the dilution series that meets the test's criterion for growth inhibition. Read a high MIC as a less susceptible organism. Consider `O=C(O)c1cn(C2CC2)c2cc(N3CCNCC3)c(F)cc2c1=O` [CIPROFLOXACIN], for which the MIC is not below 2 µg/mL.
